Values of other authors as cited in publication PMC10288581 (Frontiers in Pharmacology, 2023).

Legend:
[1] = ref Langtry and Brogden, 1997; cited from earlier work
[2] = ref Kristin et al., 2017; cited from earlier work
CYP2C19 = test system: CYP2C19; set-up: method as in Obach et al., 2006; conditions: in-vitro data; ref Obach et al., 2006; cited from earlier work
2C9 = test system: 2C9; set-up: method as in Obach et al., 2006; conditions: in-vitro data; ref Obach et al., 2006; cited from earlier work
CYP3A4 [3] = test system: CYP3A4; set-up: method as in Obach et al., 2006; Galetin et al., 2007; conditions: ref Obach et al., 2006; Galetin et al., 2007; cited from earlier work
CYP3A4 [4] = test system: CYP3A4; set-up: method as in Elsby et al., 2019; conditions: ref Elsby et al., 2019; read-out: inhibition constant Ki; cited from earlier work
P-glycoprotein = test system: P-glycoprotein; set-up: method as in Vermeer et al., 2016; conditions: in-vitro data; ref Vermeer et al., 2016; cited from earlier work
MRP2 = test system: MRP2; set-up: method as in Vermeer et al., 2016; conditions: in-vitro data; ref Vermeer et al., 2016; cited from earlier work
OATP1B1 = test system: OATP1B1; set-up: method as in Müller and Fromm, 2011; Vermeer et al., 2016; conditions: ref Müller and Fromm, 2011; Vermeer et al., 2016; cited from earlier work
OATP 1B3 = test system: OATP 1B3; set-up: method as in Müller and Fromm, 2011; Vermeer et al., 2016; conditions: ref Müller and Fromm, 2011; Vermeer et al., 2016; cited from earlier work

## CC[C@H]1OC(=O)[C@H](C)[C@@H](O[C@H]2C[C@@](C)(OC)[C@@H](O)[C@H](C)O2)[C@H](C)[C@@H](O[C@@H]2O[C@H](C)C[C@H](N(C)C)[C@H]2O)[C@](C)(OC)C[C@@H](C)C(=O)[C@H](C)[C@@H](O)[C@]1(C)O [clarithromycin, 6-O-Methylerthromycin]
[1]
  protein binding: 42%–72
[2]
  BCS class: class-II
CYP2C19
  inhibitory concentration of CYP2C19: 11%
2C9
  inhibitory concentration of 2C9: 4%
CYP3A4 [3]
  potential to inhibit the CYP3A4 at the intestinal level: 60%–70
CYP3A4 [4]
  Ki: […]
P-glycoprotein
  IC50: 8.9 ± 0.5 µM
MRP2
  IC50: > 50 µM
OATP1B1
  IC50: 5.3 ± 1.3 µM
OATP 1B3
  IC50: 14 ± 2 µM
